# Entries after “also recorded” stand apart in the source; their conditions may differ.
# Experiments:
# Assay type in all cases: cell-based
# Malassezia restricta [1] = experiment: modified disc diffusion assay with living culture (Example 2); conditions: M. restricta lawn; discs soaked with 15 ul exponentially growing Acetobacter culture or ketoconazole 1 mg/mL in DMSO; 5 days incubation
# Method: (§1) FIG. 1|Inhibition assays of M. restricta and M. globose by growth of Acetobacter fabarum. Discs were soaked with ketoconazole (1 mg/ml in DMSO) or exponentially growing Acetobacter fabarum culture and placed on agar plates containing a soft layer inoculated with a single culture of the different Malassezia species to be tested. In the upper panel, inhibition of Malassezia globosa is shown; in the bottom panel, Malassezia restricta is shown.
# (§2) In order to identify strains whose growth inhibits Malassezia, inhibition assays were performed using a modified disc diffusion method. This method is similar to the classical disc diffusion method that consists in depositing discs imbibed with potential inhibitory substances on Petri plates containing a strain of interest, except that the discs were imbibed with a living culture of an Acetobacter strain. After optimal growth of the strain of interest, growth inhibition can be observed around discs on which the growth of inhibitory bacteria has occurred. Ketoconazole (at 1 mg/mL in DMSO) was used as a positive control for Malassezia growth inhibition. The effect of growth of Acetobacter was tested on Malassezia restricta and Malassezia globosa. All Malassezia strains were streaked from −80° C. stock on Modified Leeming and Notman (MLN) agar plates and incubated 10 days at 30° C. […]
# Malassezia globosa [2] = experiment: as above; conditions: M. globosa lawn; discs soaked with 15 ul exponentially growing Acetobacter culture or ketoconazole 1 mg/mL in DMSO; 5 days incubation
# Method: as §1, §2
# Malassezia restricta [3] = experiment: disc diffusion inhibition assay (Example 1); conditions: M. restricta lawn in soft agar; 6 mm discs soaked with 15 ul supernatant or ketoconazole 1 mg/ml in DMSO; 5 days incubation
# Method: (§3) FIG. 1|Inhibition assays of the fungicide ketoconazole as positive control for inhibition and Kazachstania unispora supernatant on M. sympodialis, M. furfur, M. restricta and M. globosa. Inhibition assays were performed using the disc diffusion method. Discs were soaked with ketoconazole (1 mg/ml) or K. unispora supernatant and placed on agar plates containing a soft layer inoculated with a single culture of the different Malassezia species to be tested.
# (§4) In order to identify strains inhibiting Malassezia growth, inhibition assays were performed using the disc diffusion method. This method consists in disposing discs imbibed with potential inhibitory substances on Petri plates containing a strain of interest. After optimal growth of the strain of interest, growth inhibition can be observed around discs soaked with substances having an inhibitory effect. Potential inhibitory substances tested in this experiment are supernatants obtained after individually culturing a collection of fungal and bacterial strains. After an incubation of 10 days in their optimal broth, each culture was centrifuged and the supernatant was filtered and further stored at −20° C. Ketoconazole, a fungicide, was used as a positive control for Malassezia growth inhibition. It was diluted in dimethyl sulfoxide at 1 mg/ml. The collection of supernantants was tested on the following species from the genus Malassezia: Malassezia restricta, Malassezia globosa, Malassezia furfur and Malassezia sympodialis. All strains were streaked from −80° C. stock on Modified Leeming and Notman (MLN) agar plates and incubated 10 days at 30° C. A 5 ml liquid culture of each species was made in MLN broth and incubated at 30° C. for 2 days for M. furfur and M. sympodialis and 5 days for M. restricta and M. globosa. To allow a lawn growth of the different Malassezia strains tested, Petri plates were prepared as follows: a bottom layer of 50 ml Modified Sabouraud Dextrose (MSD) agar was poured in Petri plates. The soft agar, constituting the top layer, was a mix of 12.5 ml MSD agar, 10.5 ml MLN broth and 2 ml of liquid culture. Plates were allowed to dry for one hour, then, 6 mm-diameter Whatman™ discs were soaked with 15 ul of each thawed supernatants and ketoconazole and placed on the soft agar plate containing the solidified Malassezia monoculture layer. After an incubation of 5 days, inhibition area could be easily observed around discs. As expected, ketoconazole inhibited all 4 Malassezia species tested in this experiment. […] The strain from which the inhibitory supernatant has been produced was further sequenced using the Sanger technology. The internal transcribed spacer (ITS) of this strain was taxonomically assigned to the yeast Kazachstania unispora (BLASTn, 99% identity, 99% query cover, e-value 0.00).
# Malassezia furfur = experiment: disc diffusion inhibition assay (Example 1); conditions: M. furfur lawn in soft agar; 6 mm discs soaked with 15 ul supernatant or ketoconazole 1 mg/ml in DMSO; 5 days incubation
# Method: as §3, §4
# Malassezia sympodialis = experiment: disc diffusion inhibition assay (Example 1); conditions: M. sympodialis lawn in soft agar; 6 mm discs soaked with 15 ul supernatant or ketoconazole 1 mg/ml in DMSO; 5 days incubation
# Method: as §3, §4
# Malassezia globosa [4] = experiment: disc diffusion inhibition assay (Example 1); conditions: M. globosa lawn in soft agar; 6 mm discs soaked with 15 ul supernatant or ketoconazole 1 mg/ml in DMSO; 5 days incubation
# Method: as §3, §4
compound,measurement,setting,value
CC(=O)N1CCN(c2ccc(OCC3COC(Cn4ccnc4)(c4ccc(Cl)cc4Cl)O3)cc2)CC1 (stereo not drawn) [ketoconazole],growth inhibition (inhibition halo around disc),Malassezia restricta [1],inhibits growth; also recorded: inhibited
same,growth inhibition (inhibition halo around disc),Malassezia globosa [2],inhibits growth; also recorded: inhibited
same,growth inhibition (inhibition halo around disc),Malassezia restricta [3],inhibits growth; also recorded: inhibited
same,growth inhibition (inhibition halo around disc),Malassezia furfur,inhibits growth; also recorded: inhibited
same,growth inhibition (inhibition halo around disc),Malassezia sympodialis,inhibits growth; also recorded: inhibited
same,growth inhibition (inhibition halo around disc),Malassezia globosa [4],inhibits growth; also recorded: inhibited

# From US20220409686A1, “MEDICAL COMPOSITIONS AND THEIR USES” (BIOMILLENIA SAS, priority 2019, published 2022)
